PubChem BioAssay AID540268 (Broad Institute, 2011)
The source made the active and inactive calls. How the calls were made is not given here.

Assay: growth inhibition of yeast carrying parasite Hsp90, dose response, anti-malarial Hsp90 inhibitor project, ATP luminescence, 48 h, cherry-picked samples (AID 540268);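 on activity change, negative = inhibition: 0% = neutral control wells and -100% = positive control wells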
Conditions: yeast expressing the parasite Hsp90, ATP luminescence

Row | Structure (SMILES) | AC50
1 | COc1ccc(NC(=O)c2sc3ncnc(N4CCN(c5ccccn5)CC4)c3c2C)cc1Cl | 3.46 µM
2 | COc1ccc(Nc2cnn(-c3nc4ccccc4s3)c(=O)c2Cl)cc1 | 3.21 µM
3 | COC(=O)c1ccc(N2C(=O)CC(N3CCC(O)(c4ccc(Br)cc4)CC3)C2=O)cc1 (stereo not given) | 3.37 µM
4 | Oc1ccc(Cl)cc1Cc1cc(Cl)ccc1O | 5.41 µM
5 | Cc1ccc2nc(-c3ccc(NS(C)(=O)=O)cc3)cc(-c3ccccc3)c2c1 | 2.95 µM
6 | O=[N+]([O-])c1cc(Br)c(Nc2ccccc2)c([N+](=O)[O-])c1 | 8.53 µM
7 | O=C(Nc1ccccc1)c1nnsc1S(=O)(=O)c1ccc(Cl)cc1 | 0.435 µM
8 | COc1ccc(S(=O)(=O)N(C(=O)c2ccncc2)c2ccc(OC(=O)c3ccncc3)cc2)cc1 | 1.68 µM
9 | O=S(=O)(c1c(F)cccc1F)N(CCc1ccc(F)cc1)C[C@@H](O)COCc1ccccc1 | 1.2 µM
10 | O=C(c1ccc(-c2ccccc2)c(F)c1)C1CCCN(C(=O)c2cncs2)C1 (stereo not given) | 8.42 µM
11 | COc1ccc(N=Nc2ccc(O)c3ncccc23)cc1 | 4.61 µM
12 | Cc1ccc(C(C)C)c(OCc2ccc(C(=O)N/N=C/c3cccc(O)c3O)cc2)c1 | 1.62 µM
13 | O=C1C=C(c2ccc(Cl)cc2)C(=O)N1Nc1ccccc1 | < 0.195 µM
14 | COc1ccc2oc(/C=C/N(C)C)c(C(=O)c3ccc(Cl)cc3)c2c1 | 3.78 µM
15 | COc1ccc(C(C[N+](=O)[O-])n2nc(C)cc2C)cc1 (stereo not given) | 0.365 µM
16 | COC(=O)C1CCN(C2CC(=O)N(c3cc(C)cc(C)c3)C2=O)CC1 (stereo not given) | 7.68 µM
17 | CCOC(=O)/C=C/C(=O)Nc1cccc([N+](=O)[O-])c1 | 3.5 µM
18 | CC(C)(C)c1nn(-c2ccccc2)c2[nH]c(=O)c(C=O)cc12 | 1.31 µM
19 | CN(C)C(=S)SSC(=S)N(C)C | 3.96 µM
20 | COc1ccc(N2CCN(C(=O)c3ccc(Br)cc3)CC2)c([N+](=O)[O-])c1 | 0.497 µM
21 | Oc1c(Br)cc(Br)c(/C=N/n2c(-c3ccccc3)n[nH]c2=S)c1Br | 10.4 µM

Row | Structure (SMILES) | AC50
22 | Cc1ccc(/C=C/C(=O)c2ccccc(=O)c2O)cc1C | 8.01 µM
23 | Oc1c(Br)cc(Br)cc1C=Nc1cccnc1 | 5.8 µM
24 | CC(=NNC(=S)Nc1cccc(C)c1)c1ccccn1 | 4.3 µM
25 | Cc1cccc(N2CCN(S(=O)(=O)c3c(C)noc3/C=C/N(C)C)CC2)c1C | 8.39 µM
26 | CCOC(=O)/C(=C/c1ccc(OC(=O)c2ccccc2)cc1)C(C)=O | 1.43 µM
27 | COc1ccccc1C(=O)NNC(=S)NC(=O)c1ccco1 | 2.41 µM
28 | CCCCCCCCC/C(=N\O)c1ccccn1 | 3.65 µM
29 | Oc1ccccc1-c1nc(NC2CCCC2)c2ccccc2n1 | 4.26 µM
30 | Clc1ccc(COC(Cn2ccnc2)c2ccc(Cl)cc2Cl)cc1 (stereo not given) | < 0.195 µM
31 | CCCCCCC(=O)N(O)C1CC(=O)N(c2ccc(Cl)cc2)C1=O (stereo not given) | 1.65 µM
32 | O=C(NCCCSc1ccccc1)c1cc(Br)ccc1O | 7.37 µM
33 | C[C@@H]1C[C@@H]2O[C@H]2/C=C\C=C\C(=O)Cc2c(Cl)c(O)cc(O)c2C(=O)O1 | 2.51 µM
34 | COc1ccc(C(C[N+](=O)[O-])c2c(C)[nH]n(-c3ccccc3)c2=O)cc1 (stereo not given) | 7.77 µM
35 | Oc1ccc(C=NN=C2c3ccccc3-c3ccccc32)c(O)c1 | 1.86 µM
36 | CCCC(=O)NC(c1ccccc1Cl)c1ccc2cccnc2c1O (stereo not given) | 4.13 µM
37 | CCCCCCc1cc2cc(S(=O)(=O)c3ccc(Cl)cc3)c(=O)oc2cc1O | 0.745 µM
38 | CCCCC(=O)NC(c1ccccc1)c1ccc2cccnc2c1O (stereo not given) | 23.6 µM
39 | CSc1nc2cc(Oc3cccc(Cl)c3Cl)c(Cl)cc2[nH]1 | 6.41 µM
40 | CSC(=S)NN=C(C)c1cccc(C)n1 | 15.6 µM
41 | O=C(O)CC/C(=N/Nc1ccc([N+](=O)[O-])cc1)C(=O)O | 2.22 µM
42 | O=C(Nc1ccccc1)Oc1cccc2cccnc12 | 2.12 µM

Row | Structure (SMILES) | AC50
43 | O=C1[C@@H]2C(c3cccnc3)=NO[C@@H]2C(=O)N1c1ccc(Br)cc1 | 3.1 µM
44 | Oc1ccc(-c2c(-c3ccsc3)sc3ccccc23)cc1 | 2.72 µM
45 | O=C(CN1CCN(c2ncc(C(F)(F)F)cc2Cl)CC1)NCCNc1ncc(C(F)(F)F)cc1Cl | 3.49 µM
46 | Oc1cc(Cl)c(Cl)c(Cl)c1Cl | 1.7 µM
47 | O=C(NCC1CCCO1)c1cc([N+](=O)[O-])ccc1N1CCC(Cc2ccccc2)CC1 (stereo not given) | 4.06 µM
48 | Oc1c(C(Nc2ccccn2)c2cccnc2)cc(Cl)c2cccnc12 (stereo not given) | 8.09 µM
49 | O=C1CC(N2CCCN(C3CC(=O)N(c4ccc(F)cc4)C3=O)CC2)C(=O)N1c1ccc(F)cc1 (stereo not given) | 3.49 µM
50 | O=C1C2C3C=CC(CNS(=O)(=O)c4ccccc4[N+](=O)[O-])(O3)C2C(=O)N1c1ccccc1 (stereo not given) | 10.3 µM
51 | O=C(NNC1=C(C(=O)C(F)(F)F)CCC1)c1ccc(Br)cc1 | 0.759 µM
52 | COc1cc(C#Cc2c(-c3cncn3C)n(C)c3ccc(-c4ccc(OC)nc4)cc23)cc(OC)c1 | 4.74 µM
53 | COc1cccc(N=Nc2ccc3cccnc3c2O)c1 | 2.39 µM
54 | COc1cccc(/C=C/c2ccc3cccc(O)c3n2)c1 | < 0.195 µM
55 | CCOCCCNC1=C(Cl)C(=O)c2ccccc2C1=O | 4.93 µM
56 | O=C(Nc1nc(-c2ccco2)c(-c2ccco2)s1)c1ccco1 | 6.08 µM
57 | CCN(CC)S(=O)(=O)c1cccc(C(=O)NCC(c2ccccc2)N(C)C)c1 (stereo not given) | 3.92 µM
58 | Cc1ccc(-n2nnnc2C(Cl)c2nnnn2-c2ccc(C)cc2)cc1 | 0.903 µM
59 | Cc1ccccc1CS(=O)(=O)c1nnc([C@H](Cc2ccccc2)NC(=O)OC(C)(C)C)o1 | 17.1 µM
60 | CCOC(=O)c1ccc(N2C(=O)CC(N3CCC(O)(c4ccc(Cl)cc4)CC3)C2=O)cc1 (stereo not given) | 4.04 µM
61 | COc1cc(/C=C2\SC(=S)N(Nc3ncc(C(F)(F)F)cc3Cl)C2=O)ccc1O | 25.8 µM
62 | CCCCNc1nc(N)nc(-c2cc(Cl)ccc2O)n1 | 4.58 µM

Same assay, conditions: yeast expressing the parasite Hsp90, ATP luminescence, at 26 µM (top of the series)

Row | Structure (SMILES) | activity change, negative = inhibition
63 | O=C1C=CC(=O)N1Cc1ccccc1 | 21.3% (inactive)
64 | N#C/C(=C/c1ccc(O)cc1)C(=O)NCc1ccc(Cl)cc1 | 10.6% (inactive)
65 | CCOc1ccc(S(=O)(=O)NCc2ccccn2)c(C)c1C | 14.4% (inactive)
